{"source": "patent US20240246942A1", "about": "“KINASE INHIBITORS FOR THE TREATMENT OF NEURODEGENERATIVE DISEASES” (priority 2020, published 2024)", "test_in_all_cases": "biochemical", "key": {"[1]": {"target": "T1, panel of 374 wild-type kinases (Homo sapiens, UniProt O60674)", "T1 construct": "purchased Reaction Biology Corporation", "settings": "read-out: % Enzyme Activity (relative to DMSO controls), JAK2"}, "[2]": {"target": "T2, panel of 374 wild-type kinases (Homo sapiens, UniProt P22694)", "T2 construct": "purchased Reaction Biology Corporation", "settings": "read-out: % Enzyme Activity (relative to DMSO controls), kinase PKAcb"}, "[3]": {"target": "T3, panel of 374 wild-type kinases (Homo sapiens, UniProt P30530)", "T3 construct": "purchased Reaction Biology Corporation", "T3 sequence (P30530 26-894)": "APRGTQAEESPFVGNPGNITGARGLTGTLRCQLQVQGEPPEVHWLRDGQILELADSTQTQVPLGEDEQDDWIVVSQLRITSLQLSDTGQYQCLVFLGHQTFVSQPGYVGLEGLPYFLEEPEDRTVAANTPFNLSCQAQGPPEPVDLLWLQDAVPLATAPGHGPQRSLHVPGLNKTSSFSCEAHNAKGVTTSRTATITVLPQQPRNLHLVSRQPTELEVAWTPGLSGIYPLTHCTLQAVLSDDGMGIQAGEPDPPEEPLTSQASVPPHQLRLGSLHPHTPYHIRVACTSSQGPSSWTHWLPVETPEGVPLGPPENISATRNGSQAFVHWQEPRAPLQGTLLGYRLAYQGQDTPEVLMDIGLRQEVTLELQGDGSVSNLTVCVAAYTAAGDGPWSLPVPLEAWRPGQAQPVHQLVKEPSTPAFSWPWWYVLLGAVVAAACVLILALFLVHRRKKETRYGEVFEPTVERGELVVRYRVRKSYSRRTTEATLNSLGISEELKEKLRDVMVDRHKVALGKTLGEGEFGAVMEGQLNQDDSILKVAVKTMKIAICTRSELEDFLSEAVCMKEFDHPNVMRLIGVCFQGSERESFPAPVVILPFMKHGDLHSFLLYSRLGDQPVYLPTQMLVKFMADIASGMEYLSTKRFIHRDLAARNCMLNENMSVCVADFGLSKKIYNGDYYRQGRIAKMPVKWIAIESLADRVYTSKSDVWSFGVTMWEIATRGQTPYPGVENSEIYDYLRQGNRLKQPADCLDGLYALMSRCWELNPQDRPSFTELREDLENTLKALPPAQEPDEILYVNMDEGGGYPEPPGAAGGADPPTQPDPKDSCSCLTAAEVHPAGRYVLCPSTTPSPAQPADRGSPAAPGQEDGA", "settings": "read-out: % Enzyme Activity (relative to DMSO controls), AXL"}, "[4]": {"target": "T4, panel of 374 wild-type kinases (Homo sapiens, UniProt P35916)", "T4 construct": "purchased Reaction Biology Corporation", "settings": "read-out: % Enzyme Activity (relative to DMSO controls), FLT4/VEGFR3"}, "[5]": {"target": "T5, panel of 374 wild-type kinases (Homo sapiens, UniProt P41743)", "T5 construct": "purchased Reaction Biology Corporation", "T5 sequence (P41743 1-596)": "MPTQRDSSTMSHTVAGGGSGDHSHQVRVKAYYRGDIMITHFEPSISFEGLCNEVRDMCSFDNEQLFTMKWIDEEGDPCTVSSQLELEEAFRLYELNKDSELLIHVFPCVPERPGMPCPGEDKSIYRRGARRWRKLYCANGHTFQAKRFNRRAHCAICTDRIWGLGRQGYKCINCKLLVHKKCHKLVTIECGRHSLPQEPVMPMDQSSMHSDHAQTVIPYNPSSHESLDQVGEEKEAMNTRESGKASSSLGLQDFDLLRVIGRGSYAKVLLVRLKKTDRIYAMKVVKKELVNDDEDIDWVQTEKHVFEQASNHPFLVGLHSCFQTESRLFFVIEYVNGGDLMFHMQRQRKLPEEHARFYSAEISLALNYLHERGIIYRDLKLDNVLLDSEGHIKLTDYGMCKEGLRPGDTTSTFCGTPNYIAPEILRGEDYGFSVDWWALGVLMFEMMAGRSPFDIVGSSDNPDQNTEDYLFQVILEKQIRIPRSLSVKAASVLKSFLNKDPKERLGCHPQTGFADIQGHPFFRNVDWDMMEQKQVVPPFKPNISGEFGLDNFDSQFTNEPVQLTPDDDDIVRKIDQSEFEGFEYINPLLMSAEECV", "settings": "read-out: % Enzyme Activity (relative to DMSO controls), kinase PKCiota"}, "[6]": {"target": "T6, panel of 374 wild-type kinases (Homo sapiens, UniProt P48729)", "T6 construct": "purchased Reaction Biology Corporation", "T6 sequence (P48729 whole entry)": "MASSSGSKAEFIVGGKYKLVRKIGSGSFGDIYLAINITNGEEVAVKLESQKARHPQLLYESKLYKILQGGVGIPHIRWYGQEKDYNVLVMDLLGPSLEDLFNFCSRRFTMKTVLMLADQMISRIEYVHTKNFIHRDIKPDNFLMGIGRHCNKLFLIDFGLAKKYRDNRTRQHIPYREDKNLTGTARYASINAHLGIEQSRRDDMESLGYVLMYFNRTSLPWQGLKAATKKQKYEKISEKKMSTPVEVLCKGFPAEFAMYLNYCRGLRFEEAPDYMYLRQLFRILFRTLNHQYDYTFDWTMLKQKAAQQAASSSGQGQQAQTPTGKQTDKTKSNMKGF", "settings": "read-out: % Enzyme Activity (relative to DMSO controls), CK1a1"}, "[7]": {"target": "T7, panel of 374 wild-type kinases (Homo sapiens, UniProt P49841)", "T7 construct": "purchased Reaction Biology Corporation", "T7 sequence (P49841 whole entry)": "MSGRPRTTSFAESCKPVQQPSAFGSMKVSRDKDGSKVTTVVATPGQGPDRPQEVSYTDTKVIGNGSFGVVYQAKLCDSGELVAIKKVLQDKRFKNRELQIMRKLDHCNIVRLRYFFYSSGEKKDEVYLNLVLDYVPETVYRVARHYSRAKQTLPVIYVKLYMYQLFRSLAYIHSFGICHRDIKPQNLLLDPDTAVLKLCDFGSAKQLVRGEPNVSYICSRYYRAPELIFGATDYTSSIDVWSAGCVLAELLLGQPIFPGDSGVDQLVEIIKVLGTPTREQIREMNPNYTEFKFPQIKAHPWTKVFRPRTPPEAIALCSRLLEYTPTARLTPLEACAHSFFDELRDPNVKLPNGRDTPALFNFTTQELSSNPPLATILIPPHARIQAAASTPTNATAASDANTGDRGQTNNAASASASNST", "settings": "read-out: % Enzyme Activity (relative to DMSO controls), GSK3b"}, "[8]": {"target": "T8, panel of 374 wild-type kinases (Homo sapiens, UniProt Q02763)", "T8 construct": "purchased Reaction Biology Corporation", "T8 sequence (Q02763 23-1124)": "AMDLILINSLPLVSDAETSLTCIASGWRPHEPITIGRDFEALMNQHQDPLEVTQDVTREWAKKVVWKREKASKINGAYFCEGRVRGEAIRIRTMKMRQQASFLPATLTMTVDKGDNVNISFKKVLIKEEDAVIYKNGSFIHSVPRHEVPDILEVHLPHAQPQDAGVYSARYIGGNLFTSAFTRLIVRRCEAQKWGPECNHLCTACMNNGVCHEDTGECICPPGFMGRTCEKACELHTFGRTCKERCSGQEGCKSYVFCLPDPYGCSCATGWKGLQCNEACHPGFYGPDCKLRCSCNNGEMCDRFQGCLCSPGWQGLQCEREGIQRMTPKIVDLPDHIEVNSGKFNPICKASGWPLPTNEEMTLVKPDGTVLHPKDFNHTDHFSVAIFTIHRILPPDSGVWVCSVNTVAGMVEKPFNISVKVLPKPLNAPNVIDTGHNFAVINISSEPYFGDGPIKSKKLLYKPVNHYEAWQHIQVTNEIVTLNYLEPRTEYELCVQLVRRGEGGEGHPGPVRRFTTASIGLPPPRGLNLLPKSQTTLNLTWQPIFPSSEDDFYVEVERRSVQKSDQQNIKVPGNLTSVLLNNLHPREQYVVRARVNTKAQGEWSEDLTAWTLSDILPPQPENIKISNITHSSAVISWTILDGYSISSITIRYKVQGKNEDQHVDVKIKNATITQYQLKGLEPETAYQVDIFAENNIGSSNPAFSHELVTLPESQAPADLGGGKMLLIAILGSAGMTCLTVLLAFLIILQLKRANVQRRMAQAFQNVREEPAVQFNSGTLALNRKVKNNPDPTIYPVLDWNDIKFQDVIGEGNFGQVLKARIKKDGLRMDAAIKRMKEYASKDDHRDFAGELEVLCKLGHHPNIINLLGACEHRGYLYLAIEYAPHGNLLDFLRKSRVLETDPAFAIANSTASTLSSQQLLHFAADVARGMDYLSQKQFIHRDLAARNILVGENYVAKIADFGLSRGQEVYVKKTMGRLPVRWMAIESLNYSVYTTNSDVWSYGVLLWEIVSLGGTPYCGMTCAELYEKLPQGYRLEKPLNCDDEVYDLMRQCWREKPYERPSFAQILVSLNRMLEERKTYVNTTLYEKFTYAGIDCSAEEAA", "settings": "read-out: % Enzyme Activity (relative to DMSO controls), kinase TIE2/TEK"}, "[9]": {"target": "T9, panel of 374 wild-type kinases (Homo sapiens, UniProt Q15418)", "T9 construct": "purchased Reaction Biology Corporation", "T9 sequence (Q15418 whole entry)": "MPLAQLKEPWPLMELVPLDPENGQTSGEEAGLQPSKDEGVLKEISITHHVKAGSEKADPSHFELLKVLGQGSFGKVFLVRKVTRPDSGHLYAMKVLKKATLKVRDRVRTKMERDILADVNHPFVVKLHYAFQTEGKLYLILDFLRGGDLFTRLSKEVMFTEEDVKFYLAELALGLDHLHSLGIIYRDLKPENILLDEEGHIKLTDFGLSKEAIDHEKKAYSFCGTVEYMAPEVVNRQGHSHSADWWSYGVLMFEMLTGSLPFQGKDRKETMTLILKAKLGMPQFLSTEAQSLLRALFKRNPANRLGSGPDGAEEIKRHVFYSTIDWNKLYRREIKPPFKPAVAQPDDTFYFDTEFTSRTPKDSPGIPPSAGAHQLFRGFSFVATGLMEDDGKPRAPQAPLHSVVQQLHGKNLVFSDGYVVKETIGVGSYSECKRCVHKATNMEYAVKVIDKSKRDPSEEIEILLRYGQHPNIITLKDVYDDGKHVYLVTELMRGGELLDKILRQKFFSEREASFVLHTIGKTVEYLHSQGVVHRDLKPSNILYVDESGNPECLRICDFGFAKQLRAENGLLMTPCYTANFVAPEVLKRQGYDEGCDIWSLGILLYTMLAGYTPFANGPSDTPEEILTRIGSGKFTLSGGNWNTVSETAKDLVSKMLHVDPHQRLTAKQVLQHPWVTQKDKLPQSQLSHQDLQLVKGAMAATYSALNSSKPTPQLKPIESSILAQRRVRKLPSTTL", "settings": "read-out: % Enzyme Activity (relative to DMSO controls), kinase RSK1"}, "[10]": {"target": "T10, panel of 374 wild-type kinases (Homo sapiens, UniProt Q16513)", "T10 construct": "purchased Reaction Biology Corporation"}, "[11]": {"target": "T11, panel of 374 wild-type kinases (Homo sapiens, UniProt Q9BYT3)", "T11 construct": "purchased Reaction Biology Corporation", "T11 sequence (Q9BYT3 whole entry)": "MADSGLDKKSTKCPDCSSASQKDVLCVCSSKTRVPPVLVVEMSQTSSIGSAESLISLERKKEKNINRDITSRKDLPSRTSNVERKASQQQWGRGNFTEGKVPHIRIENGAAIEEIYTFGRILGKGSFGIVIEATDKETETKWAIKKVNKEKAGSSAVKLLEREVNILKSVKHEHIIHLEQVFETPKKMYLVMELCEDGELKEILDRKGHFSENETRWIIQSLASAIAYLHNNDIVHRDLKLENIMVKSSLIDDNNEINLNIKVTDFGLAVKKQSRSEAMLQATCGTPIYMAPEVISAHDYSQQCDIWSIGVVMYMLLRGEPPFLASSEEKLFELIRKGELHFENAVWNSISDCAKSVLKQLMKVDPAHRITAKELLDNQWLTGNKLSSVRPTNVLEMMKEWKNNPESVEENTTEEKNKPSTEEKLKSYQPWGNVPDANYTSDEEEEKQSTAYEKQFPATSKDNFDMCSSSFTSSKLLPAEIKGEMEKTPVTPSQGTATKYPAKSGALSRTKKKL", "settings": "kinase STK33, read-out: % Enzyme Activity (relative to DMSO controls)"}, "[12]": {"target": "T12, panel of 374 wild-type kinases (Homo sapiens, UniProt Q9H2G2)", "T12 construct": "purchased Reaction Biology Corporation", "T12 sequence (Q9H2G2 whole entry)": "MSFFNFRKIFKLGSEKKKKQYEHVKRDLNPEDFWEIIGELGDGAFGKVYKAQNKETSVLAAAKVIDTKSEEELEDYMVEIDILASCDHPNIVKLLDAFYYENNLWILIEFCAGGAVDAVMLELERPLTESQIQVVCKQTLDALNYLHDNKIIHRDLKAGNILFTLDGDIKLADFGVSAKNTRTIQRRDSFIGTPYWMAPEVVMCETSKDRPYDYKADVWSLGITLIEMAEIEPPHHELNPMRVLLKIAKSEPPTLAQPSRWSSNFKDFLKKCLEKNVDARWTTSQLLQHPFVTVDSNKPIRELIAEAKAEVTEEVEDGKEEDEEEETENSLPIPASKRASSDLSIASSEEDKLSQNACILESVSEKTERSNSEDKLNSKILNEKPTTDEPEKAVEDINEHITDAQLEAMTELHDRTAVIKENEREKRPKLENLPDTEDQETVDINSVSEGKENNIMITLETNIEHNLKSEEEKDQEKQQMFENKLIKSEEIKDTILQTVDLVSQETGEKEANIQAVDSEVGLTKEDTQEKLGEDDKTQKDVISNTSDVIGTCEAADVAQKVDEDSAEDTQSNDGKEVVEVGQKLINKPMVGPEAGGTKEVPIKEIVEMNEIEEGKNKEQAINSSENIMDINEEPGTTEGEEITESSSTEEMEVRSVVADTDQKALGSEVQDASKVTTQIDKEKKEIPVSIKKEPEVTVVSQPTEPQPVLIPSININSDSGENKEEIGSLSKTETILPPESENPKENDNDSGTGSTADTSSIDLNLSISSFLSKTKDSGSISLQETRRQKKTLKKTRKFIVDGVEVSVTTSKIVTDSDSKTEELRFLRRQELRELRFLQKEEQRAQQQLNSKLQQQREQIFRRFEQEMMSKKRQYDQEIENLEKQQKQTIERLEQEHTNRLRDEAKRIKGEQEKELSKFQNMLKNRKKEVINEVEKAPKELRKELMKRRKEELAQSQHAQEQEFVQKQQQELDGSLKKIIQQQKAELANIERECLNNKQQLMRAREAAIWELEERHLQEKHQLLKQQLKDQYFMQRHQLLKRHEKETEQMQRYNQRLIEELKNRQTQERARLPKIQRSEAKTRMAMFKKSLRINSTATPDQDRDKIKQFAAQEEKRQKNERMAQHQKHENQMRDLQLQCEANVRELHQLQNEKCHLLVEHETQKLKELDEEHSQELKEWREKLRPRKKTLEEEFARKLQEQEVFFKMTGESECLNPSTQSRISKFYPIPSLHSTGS", "settings": "read-out: % Enzyme Activity (relative to DMSO controls), kinase SLK/STK2"}, "[13]": {"target": "T13, panel of 374 wild-type kinases (Homo sapiens, UniProt Q9NQU5)", "T13 construct": "purchased Reaction Biology Corporation", "T13 sequence (Q9NQU5 whole entry)": "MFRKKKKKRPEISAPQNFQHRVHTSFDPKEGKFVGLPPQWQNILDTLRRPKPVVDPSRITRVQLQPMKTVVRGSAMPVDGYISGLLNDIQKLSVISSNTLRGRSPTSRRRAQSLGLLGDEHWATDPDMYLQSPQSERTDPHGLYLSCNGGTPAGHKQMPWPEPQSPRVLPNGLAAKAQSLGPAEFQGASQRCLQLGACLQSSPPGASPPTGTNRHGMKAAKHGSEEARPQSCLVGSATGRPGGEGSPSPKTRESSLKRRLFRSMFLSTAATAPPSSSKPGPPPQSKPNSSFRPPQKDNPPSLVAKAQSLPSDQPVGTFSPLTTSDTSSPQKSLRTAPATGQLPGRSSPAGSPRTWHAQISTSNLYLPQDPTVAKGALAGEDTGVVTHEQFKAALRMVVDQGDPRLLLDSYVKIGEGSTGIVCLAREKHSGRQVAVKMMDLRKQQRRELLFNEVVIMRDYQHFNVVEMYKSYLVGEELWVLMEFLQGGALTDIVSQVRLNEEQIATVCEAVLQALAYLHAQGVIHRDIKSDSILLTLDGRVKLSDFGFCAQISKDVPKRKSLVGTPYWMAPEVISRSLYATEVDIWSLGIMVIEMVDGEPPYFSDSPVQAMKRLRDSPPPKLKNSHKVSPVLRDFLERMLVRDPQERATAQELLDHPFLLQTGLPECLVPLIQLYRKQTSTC", "settings": "read-out: % Enzyme Activity (relative to DMSO controls), kinase PAK6"}, "[14]": {"target": "T14, panel of 374 wild-type kinases (Homo sapiens, UniProt Q9UEW8)", "T14 construct": "purchased Reaction Biology Corporation", "settings": "kinase STK39/STLK3, read-out: % Enzyme Activity (relative to DMSO controls)"}}, "note": "Like-named read-outs stand apart in the source and are kept apart here."}
{"smiles": "O=C(Nc1cnn(-c2csc(C(=O)NC3COC3)c2)c1)Nc1ccccc1Cl", "note": "[Compound 17, 4-(4-(3-(2-chlorophenyl)ureido)-1H-pyrazol-1-yl)-N-(oxetan-3-yl)thiophene-2-carboxamide]", "values": [{"measurement": "remaining activity at 5 µM", "setting": "[1]", "result": 98.2, "unit": "%"}, {"measurement": "remaining activity at 5 µM", "setting": "[2]", "result": 99, "unit": "%"}, {"measurement": "remaining activity at 5 µM", "setting": "[3]", "result": 96.7, "unit": "%"}, {"measurement": "remaining activity at 5 µM", "setting": "[4]", "result": 93.8, "unit": "%"}, {"measurement": "remaining activity at 5 µM", "setting": "[5]", "result": 95.5, "unit": "%"}, {"measurement": "remaining activity at 5 µM", "setting": "[6]", "result": 98.5, "unit": "%"}, {"measurement": "remaining activity at 5 µM", "setting": "[7]", "result": 95, "unit": "%"}, {"measurement": "remaining activity at 5 µM", "setting": "[8]", "result": 100, "unit": "%"}, {"measurement": "remaining activity at 5 µM", "setting": "[9]", "result": 92.4, "unit": "%"}, {"measurement": "remaining activity at 5 µM", "setting": "[10]; read-out: % Enzyme Activity (relative to DMSO controls), kinase PKN2/PRK2", "result": 112, "unit": "%"}, {"measurement": "remaining activity at 5 µM", "setting": "[11]", "result": 99.3, "unit": "%"}, {"measurement": "remaining activity at 5 µM", "setting": "[12]", "result": 89.7, "unit": "%"}, {"measurement": "remaining activity at 5 µM", "setting": "[13]", "result": 131, "unit": "%"}, {"measurement": "remaining activity at 5 µM", "setting": "[14]", "result": 87.5, "unit": "%"}]}
{"smiles": "O=C(Nc1cnn(-c2csc(C(=O)NC3COC3)c2)c1)Nc1c(F)cccc1Cl", "note": "[Compound 25, 4-(4-(3-(2-chloro-6-fluorophenyl)ureido)-1H-pyrazol-1-yl)-N-(oxetan-3-yl)thiophene-2-carboxamide]", "values": [{"measurement": "remaining activity at 5 µM", "setting": "[1]", "result": 96.5, "unit": "%"}, {"measurement": "remaining activity at 5 µM", "setting": "[2]", "result": 98.3, "unit": "%"}, {"measurement": "remaining activity at 5 µM", "setting": "[3]", "result": 73, "unit": "%"}, {"measurement": "remaining activity at 5 µM", "setting": "[4]", "result": 86.6, "unit": "%"}, {"measurement": "remaining activity at 5 µM", "setting": "[5]", "result": 87.4, "unit": "%"}, {"measurement": "remaining activity at 5 µM", "setting": "[6]", "result": 76.6, "unit": "%"}, {"measurement": "remaining activity at 5 µM", "setting": "[7]", "result": 95.7, "unit": "%"}, {"measurement": "remaining activity at 5 µM", "setting": "[8]", "result": 105, "unit": "%"}, {"measurement": "remaining activity at 5 µM", "setting": "[9]", "result": 96.3, "unit": "%"}, {"measurement": "remaining activity at 5 µM", "setting": "[10]; kinase PKN2/PRK2, read-out: % Enzyme Activity (relative to DMSO controls)", "result": 105, "unit": "%"}, {"measurement": "remaining activity at 5 µM", "setting": "[11]", "result": 81.8, "unit": "%"}, {"measurement": "remaining activity at 5 µM", "setting": "[12]", "result": 95, "unit": "%"}, {"measurement": "remaining activity at 5 µM", "setting": "[13]", "result": 92.9, "unit": "%"}, {"measurement": "remaining activity at 5 µM", "setting": "[14]", "result": 82.3, "unit": "%"}]}
{"smiles": "Cc1sc(C(=O)NC2COC2)cc1-n1cc(NC(=O)Nc2c(F)cccc2Cl)cn1", "note": "[Compound 27, 4-(4-(3-(2-chloro-6-fluorophenyl)ureido)-1H-pyrazol-1-yl)-5-methyl-N-(oxetan-3-yl)thiophene-2-carboxamide]", "values": [{"measurement": "remaining activity at 10 µM", "setting": "[1]; 10 uM", "result": 95, "unit": "%"}, {"measurement": "remaining activity at 10 µM", "setting": "[2]; 10 uM", "result": 104, "unit": "%"}, {"measurement": "remaining activity at 10 µM", "setting": "[3]; 10 uM", "result": 86.6, "unit": "%"}, {"measurement": "remaining activity at 10 µM", "setting": "[4]; 10 uM", "result": 81.9, "unit": "%"}, {"measurement": "remaining activity at 10 µM", "setting": "[5]; 10 uM", "result": 90.8, "unit": "%"}, {"measurement": "remaining activity at 10 µM", "setting": "[6]; 10 uM", "result": 81.1, "unit": "%"}, {"measurement": "remaining activity at 10 µM", "setting": "[7]; 10 uM", "result": 94.9, "unit": "%"}, {"measurement": "remaining activity at 10 µM", "setting": "[8]; 10 uM", "result": 86.6, "unit": "%"}, {"measurement": "remaining activity at 10 µM", "setting": "[9]; 10 uM", "result": 93.2, "unit": "%"}, {"measurement": "remaining activity at 10 µM", "setting": "[10]; read-out: % Enzyme Activity (relative to DMSO controls), kinase PKN2/PRK2, 10 uM", "result": 87.1, "unit": "%"}, {"measurement": "remaining activity at 10 µM", "setting": "[11]; 10 uM", "result": 87.6, "unit": "%"}, {"measurement": "remaining activity at 10 µM", "setting": "[12]; 10 uM", "result": 99.7, "unit": "%"}, {"measurement": "remaining activity at 10 µM", "setting": "[13]; 10 uM", "result": 99.9, "unit": "%"}, {"measurement": "remaining activity at 10 µM", "setting": "[14]; 10 uM", "result": 64.5, "unit": "%"}]}
